Source: PubChem BioAssay AID1963439 (Molecular Pharmacology Branch, DTP, NCI, 2024)
Several values for one entry are separate records, joined by “and”; a condition that tells them apart may be missing. Equal entries are not always repeated.

Tested on: NCI-H196 complex spheroids with HUVEC/MSC, growth % T/C
Experiment: Anticancer human tumor NCI-H196 cell line growth inhibition [Asc];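 note: spheroids exposed to compound for 7 days before measurement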;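 for viability, T/C: 100% = DMSO vehicle control wells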
Conditions: for viability, T/C: stronger effect = lower value; active = viability on the fitted dose curve at most 10% of control; inactive = the rest
In short: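 Spheroid model: tumor line + HUVEC + hMSC. Single agents and combinations; top conc. at/near clinical Cmax (10 microM if undetermined), half-log dilutions. DMSO stocks at 800-fold test concentration.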

[1] = curve of first compound, second compound 0.03 µM
[2] = curve of first compound, second compound 0.0949 µM
[3] = curve of first compound, second compound 0.3 µM
[4] = curve of first compound, second compound 0.949 µM
[5] = curve of first compound, second compound 3 µM
[6] = second compound 0.03 µM, first compound 0.00316 µM
[7] = second compound 0.03 µM, first compound 0.01 µM
[8] = second compound 0.03 µM, first compound 0.0316 µM
[9] = second compound 0.03 µM, first compound 0.1 µM
[10] = second compound 0.03 µM, first compound 0.316 µM
[11] = second compound 0.03 µM, first compound 1 µM
[12] = second compound 0.0949 µM, first compound 0.00316 µM
[13] = second compound 0.0949 µM, first compound 0.01 µM
[14] = second compound 0.0949 µM, first compound 0.0316 µM
[15] = second compound 0.0949 µM, first compound 0.1 µM
[16] = second compound 0.0949 µM, first compound 0.316 µM
[17] = second compound 0.0949 µM, first compound 1 µM
[18] = second compound 0.3 µM, first compound 0.00316 µM
[19] = second compound 0.3 µM, first compound 0.01 µM
[20] = second compound 0.3 µM, first compound 0.0316 µM
[21] = second compound 0.3 µM, first compound 0.1 µM
[22] = second compound 0.3 µM, first compound 0.316 µM
[23] = second compound 0.3 µM, first compound 1 µM
[24] = second compound 0.949 µM, first compound 0.00316 µM
[25] = second compound 0.949 µM, first compound 0.01 µM
[26] = second compound 0.949 µM, first compound 0.0316 µM
[27] = second compound 0.949 µM, first compound 0.1 µM
[28] = second compound 0.949 µM, first compound 0.316 µM
[29] = second compound 0.949 µM, first compound 1 µM
[30] = second compound 3 µM, first compound 0.00316 µM
[31] = second compound 3 µM, first compound 0.01 µM
[32] = second compound 3 µM, first compound 0.0316 µM
[33] = second compound 3 µM, first compound 0.1 µM
[34] = second compound 3 µM, first compound 0.316 µM
[35] = second compound 3 µM, first compound 1 µM
[36] = second compound 0.03 µM, first compound 3.16 µM
[37] = second compound 0.03 µM, first compound 10 µM
[38] = second compound 0.0949 µM, first compound 3.16 µM
[39] = second compound 0.0949 µM, first compound 10 µM
[40] = second compound 0.3 µM, first compound 3.16 µM
[41] = second compound 0.3 µM, first compound 10 µM
[42] = second compound 0.949 µM, first compound 3.16 µM
[43] = second compound 0.949 µM, first compound 10 µM
[44] = second compound 3 µM, first compound 3.16 µM
[45] = second compound 3 µM, first compound 10 µM

Cc1nc(N2CCC3(CC2)COC(C)C3N)c(CO)nc1Sc1ccnc(N)c1Cl (stereo unspecified)
inactive: viability, T/C (compound 0.00949 µM) 108% and 110% and 98.4% | viability, T/C (compound 0.03 µM) 142% and 106% and 101% | viability, T/C (compound 0.0949 µM) 106% and 99% and 102% | viability, T/C (compound 0.3 µM) 86.8% and 96.3% and 92.5% | viability, T/C (compound 0.949 µM) 43% and 63.5% and 67.1% | viability, T/C (compound 3 µM) 13.2% and 30.9% and 37.1%
777 nM and 1550 nM and 1820 nM: IC50 (curve of compound)

CCN1CCN(Cc2ccc(Nc3ncc(F)c(-c4cc(F)c5nc(C)n(C(C)C)c5c4)n3)nc2)CC1 + CCN1C(C(=O)NC23CCC(C(=O)O)(CC2)CC3)C(c2cccc(Cl)c2F)C2(C(=O)Nc3cc(Cl)ccc32)C12CCCCC2
inactive: viability, T/C [6] 99.9% | viability, T/C [7] 99.8% | viability, T/C [8] 96.1% | viability, T/C [9] 99.8% | viability, T/C [10] 116% | viability, T/C [11] 124% | viability, T/C [12] 113% | viability, T/C [13] 112% | viability, T/C [14] 99.4% | viability, T/C [15] 106% | viability, T/C [16] 115% | viability, T/C [17] 131% | viability, T/C [18] 107% | viability, T/C [19] 128% | viability, T/C [20] 117% | viability, T/C [21] 114% | viability, T/C [22] 117% | viability, T/C [23] 140% | viability, T/C [24] 127% | viability, T/C [25] 111% | viability, T/C [26] 123% | viability, T/C [27] 113% | viability, T/C [28] 120% | viability, T/C [29] 142% | viability, T/C [30] 129% | viability, T/C [31] 123% | viability, T/C [32] 114% | viability, T/C [33] 109% | viability, T/C [34] 119% | viability, T/C [35] 139%
> 1000 nM: IC50 [1] | IC50 [2] | IC50 [3] | IC50 [4] | IC50 [5]

C=CC(=O)N1CCN(c2nc(=O)n(-c3c(C)ccnc3C(C)C)c3nc(-c4c(O)cccc4F)c(F)cc23)C(C)C1 (stereo unspecified) + CCN1C(C(=O)NC23CCC(C(=O)O)(CC2)CC3)C(c2cccc(Cl)c2F)C2(C(=O)Nc3cc(Cl)ccc32)C12CCCCC2
inactive: viability, T/C [8] 104% | viability, T/C [9] 105% | viability, T/C [10] 104% | viability, T/C [11] 107% | viability, T/C [36] 121% | viability, T/C [37] 107% | viability, T/C [14] 111% | viability, T/C [15] 111% | viability, T/C [16] 121% | viability, T/C [17] 112% | viability, T/C [38] 106% | viability, T/C [39] 103% | viability, T/C [20] 106% | viability, T/C [21] 109% | viability, T/C [22] 108% | viability, T/C [23] 107% | viability, T/C [40] 117% | viability, T/C [41] 119% | viability, T/C [26] 123% | viability, T/C [27] 110% | viability, T/C [28] 115% | viability, T/C [29] 110% | viability, T/C [42] 140% | viability, T/C [43] 110% | viability, T/C [32] 116% | viability, T/C [33] 120% | viability, T/C [34] 115% | viability, T/C [35] 124% | viability, T/C [44] 135% | viability, T/C [45] 132%
> 10000 nM: IC50 [1] | IC50 [2] | IC50 [3] | IC50 [4] | IC50 [5]

Cn1ncnc1[C@H]1c2n[nH]c(=O)c3cc(F)cc(c23)N[C@@H]1c1ccc(F)cc1
> 100 nM: IC50 (curve of compound)
inactive: viability, T/C (compound 0.000316 µM) 97.9% and 107% and 106% | viability, T/C (compound 0.001 µM) 104% and 97.1% and 99.2% | viability, T/C (compound 0.00316 µM) 99.5% and 100% and 104% | viability, T/C (compound 0.01 µM) 104% and 102% and 98% | viability, T/C (compound 0.0316 µM) 100% (2×) and 96.9% | viability, T/C (compound 0.1 µM) 98.8% and 96% and 88.3%

O=C(c1cc(Cc2n[nH]c(=O)c3ccccc23)ccc1F)N1CCN(C(=O)C2CC2)CC1 + CCN1C(C(=O)NC23CCC(C(=O)O)(CC2)CC3)C(c2cccc(Cl)c2F)C2(C(=O)Nc3cc(Cl)ccc32)C12CCCCC2
> 10000 nM: IC50 [1] | IC50 [2] | IC50 [3] | IC50 [4] | IC50 [5]
inactive: viability, T/C [8] 102% | viability, T/C [9] 116% | viability, T/C [10] 95.9% | viability, T/C [11] 100% | viability, T/C [36] 104% | viability, T/C [37] 97.9% | viability, T/C [14] 108% | viability, T/C [15] 105% | viability, T/C [16] 110% | viability, T/C [17] 100% | viability, T/C [38] 102% | viability, T/C [39] 104% | viability, T/C [20] 106% | viability, T/C [21] 107% | viability, T/C [22] 123% | viability, T/C [23] 116% | viability, T/C [40] 107% | viability, T/C [41] 100% | viability, T/C [26] 120% | viability, T/C [27] 124% | viability, T/C [28] 121% | viability, T/C [29] 121% | viability, T/C [42] 121% | viability, T/C [43] 105% | viability, T/C [32] 116% | viability, T/C [33] 120% | viability, T/C [34] 108% | viability, T/C [35] 110% | viability, T/C [44] 128% | viability, T/C [45] 110%

O=C(c1ccc(F)c(F)c1Nc1ccc(I)cc1F)N1CC(O)([C@@H]2CCCCN2)C1 + CCN1C(C(=O)NC23CCC(C(=O)O)(CC2)CC3)C(c2cccc(Cl)c2F)C2(C(=O)Nc3cc(Cl)ccc32)C12CCCCC2
> 1000 nM: IC50 [1] | IC50 [2] | IC50 [3] | IC50 [4] | IC50 [5]
inactive: viability, T/C [6] 107% | viability, T/C [7] 110% | viability, T/C [8] 101% | viability, T/C [9] 111% | viability, T/C [10] 123% | viability, T/C [11] 157% | viability, T/C [12] 105% | viability, T/C [13] 121% | viability, T/C [14] 108% | viability, T/C [15] 112% | viability, T/C [16] 127% | viability, T/C [17] 131% | viability, T/C [18] 104% | viability, T/C [19] 114% | viability, T/C [20] 123% | viability, T/C [21] 115% | viability, T/C [22] 125% | viability, T/C [23] 122% | viability, T/C [24] 115% | viability, T/C [25] 120% | viability, T/C [26] 125% | viability, T/C [27] 120% | viability, T/C [28] 145% | viability, T/C [29] 144% | viability, T/C [30] 124% | viability, T/C [31] 123% | viability, T/C [32] 126% | viability, T/C [33] 121% | viability, T/C [34] 136% | viability, T/C [35] 154%

NC(=O)C(=Cn1cnc(-c2cc(C(F)(F)F)cc(C(F)(F)F)c2)n1)c1cncnc1
active: viability, T/C (compound 0.3 µM) 6.01% and 7.26% and 5.35%
inactive: viability, T/C (compound 0.000949 µM) 112% and 103% and 99.9% | viability, T/C (compound 0.003 µM) 101% and 99.4% and 88.3% | viability, T/C (compound 0.00949 µM) 79% and 71.1% and 58.7% | viability, T/C (compound 0.03 µM) 48.9% and 49.5% and 27.4%
9.22% and 11.1% and 7.62%: viability, T/C (compound 0.0949 µM)
25.1 nM and 23.9 nM and 13.1 nM: IC50 (curve of compound)
